Measurements from ChEMBL document CHEMBL1142142, “Synergistic activities of azithromycin and amphotericin B against Naegleria fowleri in vitro and in a mouse model of primary amebic meningoencephalitis” (Antimicrob Agents Chemother, 2007).
Active and inactive are the calls of the source. No cut-off for these calls is given here.

What was measured:
Mus musculus [1] = assay: Effect on mortality in Naegleria fowleri Lee (M67) infected CD1 mouse at 2.5 mg/kg/day, ip; type: functional; conditions: route intraperitoneal
Naegleria fowleri [2] = assay: Antimicrobial activity against Naegleria fowleri Lee (M67) in presence of amphotericin B at 1:3 ratio on day 2; type: functional
Naegleria fowleri [3] = assay: Antimicrobial activity against Naegleria fowleri Lee (M67) in presence of amphotericin B at 3:1 ratio on day 2; type: functional
Naegleria fowleri [4] = assay: Antimicrobial activity against Naegleria fowleri Lee (M67) in presence of amphotericin B at 1:3 ratio on day 3; type: functional
Mus musculus [5] = assay: Effect on mean time to death in Naegleria fowleri Lee (M67) infected CD1 mouse at 2.5 mg/kg/day, ip; type: functional; conditions: route intraperitoneal
Naegleria fowleri [6] = assay: Antimicrobial activity against Naegleria fowleri Lee (M67) in presence of amphotericin B at 1:1 ratio on day 2; type: functional
Naegleria fowleri [7] = assay: Antimicrobial activity against Naegleria fowleri Lee (M67) in presence of amphotericin B at 3:1 ratio on day 3; type: functional
Mus musculus [8] = assay: Protection against Naegleria fowleri Lee (M67) infection in CD1 mouse at 2.5 mg/kg, ip in presence of azithromycin; type: functional; conditions: route intraperitoneal
Naegleria fowleri [9] = assay: Antimicrobial activity against Naegleria fowleri Lee (M67) at day 2; type: functional, organism-based; conditions: 48 h
Naegleria fowleri [10] = assay: Antimicrobial activity against Naegleria fowleri Lee (M67) in presence of amphotericin B at 1:1 ratio on day 3; type: functional
Mus musculus [11] = assay: Effect on mortality in Naegleria fowleri Lee (M67) infected CD1 mouse at 2.5 mg/kg, ip in presence of azithromycin; type: functional; conditions: route intraperitoneal
Naegleria fowleri [12] = assay: Antimicrobial activity against Naegleria fowleri Lee (M67) at day 3; type: functional, organism-based; conditions: 72 h
Mus musculus [13] = assay: Protection against Naegleria fowleri Lee (M67) infection in CD1 mouse at 2.5 mg/kg/day, ip; type: functional; conditions: route intraperitoneal
Mus musculus [14] = assay: Effect on mean time to death in Naegleria fowleri Lee (M67) infected CD1 mouse at 2.5 mg/kg, ip in presence of azithromycin; type: functional, organism-based; set-up: dose 2.5 mg/kg
Mus musculus [15] = assay: Protection against Naegleria fowleri Lee (M67) infection in CD1 mouse at 25 mg/kg/day, ip; type: functional; conditions: route intraperitoneal
Naegleria fowleri [16] = assay: Antimicrobial activity against Naegleria fowleri Lee (M67) in presence of azithromycin at 1:3 ratio on day 3; type: functional
Mus musculus [17] = assay: Effect on mortality in Naegleria fowleri Lee (M67) infected CD1 mouse at 25 mg/kg/day, ip; type: functional; conditions: route intraperitoneal
Naegleria fowleri [18] = assay: Antimicrobial activity against Naegleria fowleri Lee (M67) in presence of azithromycin at 3:1 ratio on day 2; type: functional
Naegleria fowleri [19] = assay: Antimicrobial activity against Naegleria fowleri Lee (M67) in presence of azithromycin at 3:1 ratio on day 3; type: functional
Naegleria fowleri [20] = assay: Antimicrobial activity against Naegleria fowleri Lee (M67) in presence of azithromycin at 1:1 ratio on day 3; type: functional
Naegleria fowleri [21] = assay: Antimicrobial activity against Naegleria fowleri Lee (M67) in presence of azithromycin at 1:1 ratio on day 2; type: functional
Mus musculus [22] = assay: Effect on mean time to death in Naegleria fowleri Lee (M67) infected CD1 mouse at 25 mg/kg/day, ip; type: functional; conditions: route intraperitoneal
Naegleria fowleri [23] = assay: Antimicrobial activity against Naegleria fowleri Lee (M67) in presence of azithromycin at 1:3 ratio on day 2; type: functional

In the case of C[C@@H]1[C@H](O)[C@@H](C)/C=C/C=C/C=C/C=C/C=C/C=C/C=C/[C@H](O[C@@H]2O[C@H](C)[C@@H](O)[C@H](N)[C@@H]2O)C[C@@H]2O[C@](O)(C[C@@H](O)C[C@@H](O)[C@H](O)CC[C@@H](O)C[C@@H](O)CC(=O)O[C@H]1C)C[C@H](O)[C@H]2C(=O)O [AMPHOTERICIN B], the Activity (Mus musculus [1]) is reported as 55%, the FIC50 (Naegleria fowleri [2]) is reported as 0.311 and the FIC50 (Naegleria fowleri [3]) is reported as 0.254. For the same compound, the FIC50 (Naegleria fowleri [4]) was 0.167, the Activity (Mus musculus [5]) was 7 days and the FIC50 (Naegleria fowleri [6]) was 0.241. For the same compound, the FIC50 (Naegleria fowleri [7]) was 0.303, the Activity (Mus musculus [8]) was 100% and the IC50 (Naegleria fowleri [9]) was 26.4 nM. For the same compound, the FIC50 (Naegleria fowleri [10]) was 0.309, the Activity (Mus musculus [11]) was 0% and the IC50 (Naegleria fowleri [12]) was 18.3 nM. For the same compound, the Activity (Mus musculus [13]) was 27% and the Activity (Mus musculus [14]) was “Active”.
Compound CC[C@H]1OC(=O)[C@H](C)[C@@H](O[C@H]2C[C@@](C)(OC)[C@@H](O)[C@H](C)O2)[C@H](C)[C@@H](O[C@@H]2O[C@H](C)C[C@H](N(C)C)[C@H]2O)[C@](C)(O)C[C@@H](C)CN(C)[C@H](C)[C@@H](O)[C@]1(C)O [AZITHROMYCIN] has an Activity (Mus musculus [15]) of 40%, an FIC50 (Naegleria fowleri [16]) of 0.55 and an Activity (Mus musculus [17]) of 45%. It also gave an IC50 (Naegleria fowleri [9]) of 2.6 nM, an IC50 (Naegleria fowleri [12]) of 3.1 nM and an FIC50 (Naegleria fowleri [18]) of 0.088. For the same compound, the FIC50 (Naegleria fowleri [19]) was 0.103, the FIC50 (Naegleria fowleri [20]) was 0.308 and the FIC50 (Naegleria fowleri [21]) was 0.238. It also gave an Activity (Mus musculus [22]) of 12.4 days and an FIC50 (Naegleria fowleri [23]) of 0.464.
